# Assay: Binding affinity to recombinant human CypD K175I mutant (44 to 207 residues) expressed in Escherichia coli cells assessed as dissociation constant by SPR analysis
row,Structure (SMILES),Kd [µM]
1,Cc1onc(-c2ccncc2)c1C(=O)O,> 10000
2,CCN1Cc2cc3c(cc2NCCC1=O)OCO3,7500
3,O=C(NCc1ccc2c(c1)[C@@H]1C[C@H](N2)[C@H](O)CO1)C(=O)N1CCCC1,217
4,Nc1ccc(CCNC(=O)CN2C(=O)C3C4CCC(C4)C3C2=O)cc1 (stereo not given),> 200
5,CSc1ccccc1[C@H]1CCCN1C(=O)CN(C)C(=O)NCc1ccc2c(c1)[C@H]1C[C@@H](N2)[C@H](O)CO1,7
6,CSc1ccccc1[C@H]1CCCN1C(=O)C(=O)NCc1ccc2c(c1)[C@H]1C[C@@H](N2)[C@H](O)CO1,184
7,CSc1ccccc1[C@H]1CCCN1C(=O)CNC(=O)CCc1ccc2c(c1)[C@@H]1C[C@H](N2)[C@H](O)CO1,39
8,O=C(NCc1ccccn1)C(=O)NC1CCCC1,1100
9,CCN1Cc2cc(CNC(=O)NCC(=O)N3CCC[C@@H]3c3ccccc3SC)ccc2NCCC1=O,0.18
10,CCn1nnc(NC(=O)c2ccccc2)n1,3900
11,CCN1Cc2cc(NC(=O)CN3C(=O)C4C(C3=O)[C@H]3CC[C@@H]4C3)ccc2NCCC1=O (stereo not given in full),> 6000
12,O=C(CN1C(=O)[C@@H]2[C@@H]3CC[C@@H](C3)[C@@H]2C1=O)NCc1ccc2c(c1)[C@H]1C[C@@H](N2)[C@H](O)CO1,0.66
13,CCN1Cc2cc(CCC(=O)NCCC(=O)N3CCC[C@@H]3c3ccccc3SC)ccc2NCCC1=O,420
14,CCN1Cc2cc(NC(=O)NCC(=O)N3CCC[C@@H]3c3ccccc3SC)ccc2NCCC1=O,260
15,O=C(CN1C(=O)[C@@H]2[C@H]3CC[C@H](C3)[C@@H]2C1=O)NCc1ccc2c(c1)[C@H]1C[C@@H](N2)[C@H](O)CO1,1.2
16,CCN1Cc2cc(CCC(=O)NCC(=O)N3CCC[C@@H]3c3ccccc3SC)ccc2NCCC1=O,2.3
17,O[C@@H]1CO[C@@H]2C[C@H]1Nc1ccc(F)cc12,7100
18,O=C(O)CN1C(=O)[C@@H]2[C@@H]3CC[C@@H](C3)[C@@H]2C1=O,> 10000
19,CSc1ccccc1[C@@H]1CCCN1C(=O)C(=O)NCc1ccc2c(c1)[C@H]1C[C@@H](N2)[C@H](O)CO1,> 240
20,O=C(NCc1ccc2c(c1)[C@H]1C[C@@H](N2)[C@H](O)CO1)C(=O)N1CCCC1,> 1500

# — ChEMBL document CHEMBL4359930, “Discovery of novel Cyclophilin D inhibitors starting from three dimensional fragments with millimolar potencies” (Bioorg Med Chem Lett, 2019)
